Experimental data reported in patent US11524968B2, “Heterocyclic compound as a protein kinase inhibitor” (HK inno.N Corporation, priority 2017, dated 2022).

Biological target: JAK1 (Homo sapiens (Human), UniProt P23458)
Assay: Analysis of JAK1 activity inhibition ability (ADP-Glo Kinase Assay)
Type: biochemical
Settings: JAK1 enzyme, ADP-Glo luminescence, ATP 250 uM, IRS-itide substrate, 30° C. 40 minutes; read-out: IC50
Outline: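 JAK1 enzyme, IRS-itide substrate (40 ng/mL) and 250 uM ATP, both as prepared in kinase buffer (Tris-HCl pH 7.5, MgCl2, BSA, DTT), reacted with compound 40 min at 30 °C. ADP formed was detected by ADP-Glo luminescence; IC50 is the concentration giving 50% inhibition versus control.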

JAK1, sequence (P23458 whole entry): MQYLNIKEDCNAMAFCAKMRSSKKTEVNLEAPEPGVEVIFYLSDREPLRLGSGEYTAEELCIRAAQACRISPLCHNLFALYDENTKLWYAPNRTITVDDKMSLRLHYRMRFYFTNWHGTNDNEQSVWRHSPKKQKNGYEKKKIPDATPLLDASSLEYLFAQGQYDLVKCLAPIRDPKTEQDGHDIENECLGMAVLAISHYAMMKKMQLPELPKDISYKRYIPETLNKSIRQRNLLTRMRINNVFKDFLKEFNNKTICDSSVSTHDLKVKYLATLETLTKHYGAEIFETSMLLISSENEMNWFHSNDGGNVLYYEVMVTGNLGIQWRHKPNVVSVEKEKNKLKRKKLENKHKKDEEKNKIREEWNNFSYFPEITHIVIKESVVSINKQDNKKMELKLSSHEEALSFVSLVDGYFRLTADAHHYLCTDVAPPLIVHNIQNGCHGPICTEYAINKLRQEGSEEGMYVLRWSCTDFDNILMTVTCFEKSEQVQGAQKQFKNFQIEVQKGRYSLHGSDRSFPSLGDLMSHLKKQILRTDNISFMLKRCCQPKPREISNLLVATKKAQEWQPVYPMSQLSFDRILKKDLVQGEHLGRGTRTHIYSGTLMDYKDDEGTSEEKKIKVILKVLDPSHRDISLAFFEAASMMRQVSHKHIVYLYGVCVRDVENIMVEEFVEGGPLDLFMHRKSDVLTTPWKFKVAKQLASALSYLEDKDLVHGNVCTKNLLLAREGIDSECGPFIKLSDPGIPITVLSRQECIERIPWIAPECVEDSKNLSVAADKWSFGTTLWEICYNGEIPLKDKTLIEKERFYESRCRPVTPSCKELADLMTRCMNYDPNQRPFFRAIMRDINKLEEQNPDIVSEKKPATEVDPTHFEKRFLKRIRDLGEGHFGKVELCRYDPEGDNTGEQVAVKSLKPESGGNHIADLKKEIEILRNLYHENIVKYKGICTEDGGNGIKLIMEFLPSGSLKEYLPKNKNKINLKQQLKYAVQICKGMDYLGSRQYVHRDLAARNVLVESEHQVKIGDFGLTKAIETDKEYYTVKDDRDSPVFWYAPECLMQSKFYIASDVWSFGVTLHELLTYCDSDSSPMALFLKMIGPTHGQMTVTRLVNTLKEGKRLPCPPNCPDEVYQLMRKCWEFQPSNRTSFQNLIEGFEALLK

SMILES	IC50 [nM]
CCCS(=O)(=O)N1C2C=C(c3cc(NC(=O)C4CC4)nc4[nH]ccc34)CC1CC2 (stereo not shown) [Example 176, N-(4-(8-(propylsulfonyl)-8-azabicyclo[3.2.1]oct-2-en-3-yl)-1H-pyrrolo[2,3-b]pyridin-6-yl)cyclopropanecarboxamide]	20 to 200
O=C(Nc1cc(C2=CC3CCC(C2)N3S(=O)(=O)C2CC2)c2cc[nH]c2n1)C1CC1 (stereo not shown) [Example 177, N-(4-(8-(cyclopropylsulfonyl)-8-azabicyclo[3.2.1]oct-2-en-3-yl)-1H-pyrrolo[2,3-b]pyridin-6-yl)cyclopropanecarboxamide]	20 to 200
O=C(Nc1cc(C2=CC3CCC(C2)N3S(=O)(=O)c2ccc(F)c(F)c2)c2cc[nH]c2n1)C1CC1 (stereo not shown) [Example 178, N-(4-(8-((3,4-difluorophenyl)sulfonyl)-8-azabicyclo[3.2.1]oct-2-en-3-yl)-1H-pyrrolo[2,3-b]pyridin-6-yl)cyclopropanecarboxamide]	20 to 200
CCS(=O)(=O)N1CC=C(c2cc(NC(=O)C3CC3)nc3[nH]ccc23)C(C)(C)C1 [Example 179, N-(4-(1-(ethylsulfonyl)-3,3-dimethyl-1,2,3,6-tetrahydropyridin-4-yl)-1H-pyrrolo[2,3-b]pyridin-6-yl)cyclopropanecarboxamide]	> 200
CC1(C)CN(S(=O)(=O)CCCC#N)CC=C1c1cc(NC(=O)C2CC2)nc2[nH]ccc12 [Example 180, N-(4-(1-((3-cyanopropyl)sulfonyl)-3,3-dimethyl-1,2,3,6-tetrahydropyridin-4-yl)-1H-pyrrolo[2,3-b]pyridin-6-yl)cyclopropanecarboxamide]	20 to 200
O=C(Nc1nc(-c2ccc(NS(=O)(=O)c3ccc(F)c(F)c3)cc2)c2cc[nH]c2n1)C1CC1 [Example 181, N-(4-(4-((3,4-difluorophenyl)sulfonamido)phenyl)-7H-pyrrolo[2,3-d]pyrimidin-2-yl)cyclopropanecarboxamide]	< 20
CCS(=O)(=O)Nc1ccc(-c2nc(NC(=O)C3CC3)nc3[nH]ccc23)cc1 [Example 182, N-(4-(4-(ethylsulfonamido)phenyl)-7H-pyrrolo[2,3-d]pyrimidin-2-yl)cyclopropanecarboxamide]	20 to 200
O=C(Nc1nc(-c2ccc(NS(=O)(=O)C3CCCCC3)cc2)c2cc[nH]c2n1)C1CC1 [Example 183, N-(4-(4-(cyclohexanesulfonamido)phenyl)-7H-pyrrolo[2,3-d]pyrimidin-2-yl)cyclopropanecarboxamide]	< 20
O=C(Nc1nc(-c2ccc(NS(=O)(=O)CCCC(F)(F)F)cc2)c2cc[nH]c2n1)C1CC1 [Example 184, N-(4-(4-((4,4,4-trifluorobutyl)sulfonamido)phenyl)-7H-pyrrolo[2,3-d]pyrimidin-2-yl)cyclopropanecarboxamide]	20 to 200
O=C(Nc1nc(-c2ccc(NS(=O)(=O)CCCF)cc2)c2cc[nH]c2n1)C1CC1 [Example 185, N-(4-(4-((3-fluoropropyl)sulfonamido)phenyl)-7H-pyrrolo[2,3-d]pyrimidin-2-yl)cyclopropanecarboxamide]	< 20
N#CCCCS(=O)(=O)Nc1ccc(-c2nc(NC(=O)C3CC3)nc3[nH]ccc23)cc1 [Example 186, N-(4-(4-((3-cyanopropyl)sulfonamido)phenyl)-7H-pyrrolo[2,3-d]pyrimidin-2-yl)cyclopropanecarboxamide]	20 to 200
O=C(Nc1nc(-c2ccc(NS(=O)(=O)c3ccc(Cl)cc3)cc2)c2cc[nH]c2n1)C1CC1 [Example 187, N-(4-(4-((4-chlorophenyl)sulfonamido)phenyl)-7H-pyrrolo[2,3-d]pyrimidin-2-yl)cyclopropanecarboxamide]	20 to 200
O=C(Nc1nc(-c2ccc(NS(=O)(=O)c3ccc(F)cc3)cc2)c2cc[nH]c2n1)C1CC1 [Example 188, N-(4-(4-((4-fluorophenyl)sulfonamido)phenyl)-7H-pyrrolo[2,3-d]pyrimidin-2-yl)cyclopropanecarboxamide]	< 20
O=C(Nc1nc(-c2ccc(NS(=O)(=O)c3ccc(Br)cc3)cc2)c2cc[nH]c2n1)C1CC1 [Example 189, N-(4-(4-((4-bromophenyl)sulfonamido)phenyl)-7H-pyrrolo[2,3-d]pyrimidin-2-yl)cyclopropanecarboxamide]	20 to 200
CCCS(=O)(=O)Nc1ccc(-c2nc(NC(=O)C3CC3)nc3[nH]ccc23)cc1 [Example 190, N-(4-(4-(propylsulfonamido)phenyl)-7H-pyrrolo[2,3-d]pyrimidin-2-yl)cyclopropanecarboxamide]	< 20
CCCCS(=O)(=O)Nc1ccc(-c2nc(NC(=O)C3CC3)nc3[nH]ccc23)cc1 [Example 191, N-(4-(4-(butylsulfonamido)phenyl)-7H-pyrrolo[2,3-d]pyrimidin-2-yl)cyclopropanecarboxamide]	< 20
O=C(Nc1nc(-c2ccc(NS(=O)(=O)c3cccc(F)c3)cc2)c2cc[nH]c2n1)C1CC1 [Example 192, N-(4-(4-((3-fluorophenyl)sulfonamido)phenyl)-7H-pyrrolo[2,3-d]pyrimidin-2-yl)cyclopropanecarboxamide]	< 20

Results, then the molecule that gave them:

IC50 [nM]	SMILES
> 200	CN(c1ccc(-c2nc(NC(=O)C3CC3)nc3[nH]ccc23)cc1)S(=O)(=O)c1ccc(F)c(F)c1 [Example 193, N-(4-(4-((3,4-difluoro-N-methylphenyl)sulfonamido)phenyl)-7H-pyrrolo[2,3-d]pyrimidin-2-yl)cyclopropanecarboxamide]
< 20	O=C(Nc1nc(-c2ccc(NS(=O)(=O)CCC(F)(F)F)cc2)c2cc[nH]c2n1)C1CC1 [Example 194, N-(4-(4-((3,3,3-trifluoropropyl)sulfonamido)phenyl)-7H-pyrrolo[2,3-d]pyrimidin-2-yl)cyclopropanecarboxamide]
20 to 200	O=C(Nc1nc(-c2ccc(NS(=O)(=O)C3CCS(=O)(=O)CC3)cc2)c2cc[nH]c2n1)C1CC1 [Example 195, N-(4-(4-((1,1-dioxidotetrahydro-2H-thiopyran)-4-sulfonamido)phenyl)-7H-pyrrolo[2,3-d]pyrimidin-2-yl)cyclopropanecarboxamide]
20 to 200	O=C(Nc1nc(-c2ccc(NS(=O)(=O)C3CCS(=O)(=O)C3)cc2)c2cc[nH]c2n1)C1CC1 (stereo not shown) [Example 196, N-(4-(4-((1,1-dioxidotetrahydrothiophene)-3-sulfonamido)phenyl)-7H-pyrrolo[2,3-d]pyrimidin-2-yl)cyclopropanecarboxamide]
> 200	N#Cc1ccc(S(=O)(=O)Nc2ccc(-c3nc(NC(=O)C4CC4)nc4[nH]ccc34)cc2)cn1 [Example 197, N-(4-(4-((6-cyanopyridine)-3-sulfonamido)phenyl)-7H-pyrrolo[2,3-d]pyrimidin-2-yl)cyclopropanecarboxamide]
> 200	Cn1cncc1S(=O)(=O)Nc1ccc(-c2nc(NC(=O)C3CC3)nc3[nH]ccc23)cc1 [Example 198, N-(4-(4-((1-methyl-1H-imidazole)-5-sulfonamido)phenyl)-7H-pyrrolo[2,3-d]pyrimidin-2-yl)cyclopropanecarboxamide]
> 200	Cn1cc(S(=O)(=O)Nc2ccc(-c3nc(NC(=O)C4CC4)nc4[nH]ccc34)cc2)cn1 [Example 199, N-(4-(4-((1-methyl-1H-pyrazole)-4-sulfonamido)phenyl)-7H-pyrrolo[2,3-d]pyrimidin-2-yl)cyclopropanecarboxamide]
> 200	NC(=O)c1ccc(S(=O)(=O)Nc2ccc(-c3nc(NC(=O)C4CC4)nc4[nH]ccc34)cc2)cc1 [Example 200, 4-(N-(4-(2-(cyclopropanecarboxamido)-7H-pyrrolo[2,3-d]pyrimidin-4-yl)phenyl)sulfamoyl)benzamide]
> 200	CS(=O)(=O)Nc1ccc(-c2nc(NC(=O)C3CC3)nc3[nH]ccc23)cc1F [Example 201, N-(4-(3-fluoro-4-(methylsulfonamido)phenyl)-7H-pyrrolo[2,3-d]pyrimidin-2-yl)cyclopropanecarboxamide]
20 to 200	CCS(=O)(=O)Nc1ccc(-c2nc(NC(=O)C3CC3)nc3[nH]ccc23)cc1F [Example 202, N-(4-(4-(ethylsulfonamido)-3-fluorophenyl)-7H-pyrrolo[2,3-d]pyrimidin-2-yl)cyclopropanecarboxamide]
< 20	O=C(Nc1nc(-c2ccc(NS(=O)(=O)CCCF)c(F)c2)c2cc[nH]c2n1)C1CC1 [Example 203, N-(4-(3-fluoro-4-((3-fluoropropyl)sulfonamido)phenyl)-7H-pyrrolo[2,3-d]pyrimidin-2-yl)cyclopropanecarboxamide]
20 to 200	N#CCCCS(=O)(=O)Nc1ccc(-c2nc(NC(=O)C3CC3)nc3[nH]ccc23)cc1F [Example 204, N-(4-(4-((3-cyanopropyl)sulfonamido)-3-fluorophenyl)-7H-pyrrolo[2,3-d]pyrimidin-2-yl)cyclopropanecarboxamide]
20 to 200	O=C(Nc1nc(-c2ccc(NS(=O)(=O)c3ccc(F)c(F)c3)c(F)c2)c2cc[nH]c2n1)C1CC1 [Example 205, N-(4-(4-((3,4-difluorophenyl)sulfonamido)-3-fluorophenyl)-7H-pyrrolo[2,3-d]pyrimidin-2-yl)cyclopropanecarboxamide]
20 to 200	CCCS(=O)(=O)Nc1ccc(-c2nc(NC(=O)C3CC3)nc3[nH]ccc23)cc1F [Example 206, N-(4-(3-fluoro-4-(propylsulfonamido)phenyl)-7H-pyrrolo[2,3-d]pyrimidin-2-yl)cyclopropanecarboxamide]
> 200	CCS(=O)(=O)Nc1ccc(-c2cc(NC(=O)C3CC3)nc3[nH]cnc23)cc1 [Example 207, N-(7-(4-(ethylsulfonamido)phenyl)-3H-imidazo[4,5-b]pyridin-5-yl)cyclopropanecarboxamide]
> 200	O=C(Nc1nc(-c2ccc(NS(=O)(=O)c3ccc(F)c(F)c3)cc2)c2nc[nH]c2n1)C1CC1 [Example 208, N-(6-(4-((3,4-difluorophenyl)sulfonamido)phenyl)-9H-purin-2-yl)cyclopropanecarboxamide]
> 200	CCS(=O)(=O)Nc1ccc(-c2nc(NC(=O)C3CC3)nc3[nH]cnc23)cc1 [Example 209, N-(6-(4-(ethylsulfonamido)phenyl)-9H-purin-2-yl)cyclopropanecarboxamide]
